Assay results from US20260317324A1, “BIFUNCTIONAL COMPOUNDS FOR DEGRADING BRAF VIA UBIQUITIN PROTEOSOME PATHWAY” (Nurix Therapeutics, Inc., priority 2023, published 2026).

Target: T1, BRAF V600E (Homo sapiens, UniProt P15056, V600E)
T1 construct: endogenous C-terminal HiBiT fusion tag on BRAF V600E allele; endogenous in cells; host or cells: A375 clone 1F10 (CRISPR-Cas9 knock-in of the HiBiT tag; parental A375 from ATCC)
Experiment: BRAF HiBiT degradation assay, C-terminal HiBiT-tagged BRAF V600E A375 cells (clone 1F10), Nano-Glo HiBiT Lytic assay
Assay type: cell-based
Settings: A375 (BRAF V600E); for DC50: DC50 at 50%: fitted conc. at Y=50; for Dmax: A-375, percentage protein degraded at maximal compound effect relative to DMSO
Method in brief: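 Degradation is measured as loss of HiBiT signal from BRAF V600E tagged at its native locus in A375 cells. Doses span 1 μM to 0.01 nM in half-log steps, in duplicate. Percent remaining is calculated against DMSO controls after subtracting untagged A375 background, and curve fitting yields DC50 and observed Dmax.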

T1 sequence (P15056 whole entry V600E, the tested form may be a part): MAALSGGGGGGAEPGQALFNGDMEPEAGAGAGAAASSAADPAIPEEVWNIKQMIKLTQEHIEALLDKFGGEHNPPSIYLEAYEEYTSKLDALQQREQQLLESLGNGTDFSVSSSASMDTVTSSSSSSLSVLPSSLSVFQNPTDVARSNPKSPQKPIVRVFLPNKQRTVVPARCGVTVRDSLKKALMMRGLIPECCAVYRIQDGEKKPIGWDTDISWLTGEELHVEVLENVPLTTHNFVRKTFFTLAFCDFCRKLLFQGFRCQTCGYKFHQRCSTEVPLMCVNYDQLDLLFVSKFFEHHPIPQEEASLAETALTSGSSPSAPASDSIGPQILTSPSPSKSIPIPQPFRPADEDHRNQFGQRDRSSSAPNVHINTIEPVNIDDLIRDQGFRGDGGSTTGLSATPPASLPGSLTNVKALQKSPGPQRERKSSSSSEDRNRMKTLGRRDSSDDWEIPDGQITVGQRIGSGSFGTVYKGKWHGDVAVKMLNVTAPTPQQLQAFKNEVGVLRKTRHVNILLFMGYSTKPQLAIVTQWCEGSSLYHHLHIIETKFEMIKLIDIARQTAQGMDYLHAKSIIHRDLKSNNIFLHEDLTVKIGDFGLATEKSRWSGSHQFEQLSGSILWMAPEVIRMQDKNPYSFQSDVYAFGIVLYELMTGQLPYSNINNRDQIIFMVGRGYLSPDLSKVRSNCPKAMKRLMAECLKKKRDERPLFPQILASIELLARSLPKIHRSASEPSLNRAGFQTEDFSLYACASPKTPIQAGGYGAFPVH

With `CCCS(=O)(=O)Nc1cccc(-c2nc(C(C)(C)C)sc2-c2ccnc(N[C@H]3CC[C@H](N4CCN(CC5CCN(c6ccc(C7CCC(=O)NC7=O)cn6)CC5)CC4)CC3)n2)c1F` (mixture of isomers) [Compound 135, N-{3-[2-tert-butyl-5-(2-{[(1r,4r)-4-{4-[(1-{5-[(3RS)-2,6-dioxopiperidin-3-yl]pyridin-2-yl}piperidin-4-yl)methyl]piperazin-1-yl}cyclohexyl]amino}pyrimidin-4-yl)-1,3-thiazol-4-yl]-2-fluorophenyl}propane-1-sulfonamide] the DC50 was 50 to 500 nM and the Dmax was 30 to 70%.

Molecule `CCCS(=O)(=O)Nc1cccc(-c2nc(C(C)(C)C)sc2-c2ccnc(Nc3cccc(OC4CCN(C(=O)CN5CCc6cc(C7CCC(=O)NC7=O)ccc6C5)CC4)c3)n2)c1F` (racemic) [Compound 101, Rac-N-[3-(2-tert-butyl-5-{2-[(3-{[1-(2-{6-[(3R)-2,6-dioxopiperidin-3-yl]-1,2,3,4-tetrahydroisoquinolin-2-yl}acetyl)piperidin-4-yl]oxy}phenyl)amino]pyrimidin-4-yl}-1,3-thiazol-4-yl)-2-fluorophenyl]propane-1-sulfonamide] has a DC50 of 10 to 50 nM and a Dmax of over 70%.

Work on `CCCS(=O)(=O)Nc1cccc(-c2nc(C)sc2-c2ccnc(Nc3ccc(N4CCN(CC5(F)CCN(c6ccc(C7CCC(=O)NC7=O)cc6)CC5)CC4)cc3)n2)c1F` (racemic) [Compound 31, Rac-N-[3-(5-{2-[(4-{4-[(1-{4-[(3R)-2,6-dioxopiperidin-3-yl]phenyl}-4-fluoropiperidin-4-yl)methyl]piperazin-1-yl}phenyl)amino]pyrimidin-4-yl}-2-methyl-1,3-thiazol-4-yl)-2-fluorophenyl]propane-1-sulfonamide] yielded a DC50 of 10 to 50 nM and a Dmax of over 70%.

Molecule `CCCS(=O)(=O)Nc1cccc(-c2nc(-c3ccc(C4CCN(C(=O)CC5CCN(c6ccc(NC7CCC(=O)NC7=O)cc6)CC5)CC4)cc3)sc2-c2ccnc(N)n2)c1F` (racemic) [Compound 185, Rac-N-{3-[5-(2-aminopyrimidin-4-yl)-2-[4-(1-{2-[1-(4-{[(3R)-2,6-dioxopiperidin-3-yl]amino}phenyl)piperidin-4-yl]acetyl}piperidin-4-yl)phenyl]-1,3-thiazol-4-yl]-2-fluorophenyl}propane-1-sulfonamide] has a DC50 of 10 to 50 nM and a Dmax of 30 to 70%.

In the case of `CCCS(=O)(=O)Nc1cccc(-c2nc(C(C)(C)C)sc2-c2ccnc(NC3CC4(C3)CN(C(=O)C3CN(C5CCN(c6ccc7c(c6)C(=O)N(C6CCC(=O)NC6=O)C7=O)CC5)C3)C4)n2)c1F` (racemic) [Compound 154, Rac-N-(3-{2-tert-butyl-5-[2-({2-[1-(1-{2-[(3R)-2,6-dioxopiperidin-3-yl]-1,3-dioxo-2,3-dihydro-1H-isoindol-5-yl}piperidin-4-yl)azetidine-3-carbonyl]-2-azaspiro[3.3]heptan-6-yl}amino)pyrimidin-4-yl]-1,3-thiazol-4-yl}-2-fluorophenyl)propane-1-sulfonamide], the DC50 is reported as 50 to 500 nM and the Dmax is reported as over 70%.

In the case of `CCCS(=O)(=O)Nc1cccc(-c2nc(C(C)(C)C)sc2-c2ccnc(Nc3ccc(N4CCN(C(=O)[C@H]5CC[C@H](Oc6ccc(C7CCC(=O)NC7=O)cn6)CC5)CC4)c(F)c3)n2)c1F` (mixture of isomers) [Compound 50, N-[3-(2-tert-butyl-5-{2-[(3-fluoro-4-{4-[(1r,4r)-4-({5-[(3RS)-2,6-dioxopiperidin-3-yl]pyridin-2-yl}oxy)cyclohexanecarbonyl]piperazin-1-yl}phenyl)amino]pyrimidin-4-yl}-1,3-thiazol-4-yl)-2-fluorophenyl]propane-1-sulfonamide], the DC50 is reported as 10 to 50 nM and the Dmax is reported as over 70%.
